In patent US20250230193A1, “CYCLIC COMPOUND HAVING SELECTIVE KRAS INHIBITORY EFFECT ON HRAS AND NRAS” (CHUGAI SEIYAKU KABUSHIKI KAISHA, priority 2022, published 2025):

Tests used:
[1] = molecular target: GDP-bound HRAS wild-type protein (Homo sapiens, UniProt P01112); assay: Binding to HRAS by surface plasmon resonance (SPR), Single Cycle Kinetics; conditions: KD ratio, GDP-bound HRAS wild-type vs GDP-bound KRAS wild-type, SPR
[2] = molecular target: GDP-bound NRAS wild-type protein (Homo sapiens, UniProt P01111); assay: Binding to NRAS by surface plasmon resonance (SPR), Single Cycle Kinetics; conditions: KD ratio, GDP-bound NRAS wild-type vs GDP-bound KRAS wild-type, SPR
Chain of GDP-bound NRAS wild-type protein (P01111 whole entry): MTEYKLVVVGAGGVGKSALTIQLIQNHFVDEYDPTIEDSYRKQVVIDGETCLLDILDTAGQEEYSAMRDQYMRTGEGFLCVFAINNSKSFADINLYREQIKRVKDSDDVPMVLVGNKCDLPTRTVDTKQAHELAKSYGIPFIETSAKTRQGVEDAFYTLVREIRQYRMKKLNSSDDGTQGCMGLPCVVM

Chain of GDP-bound HRAS wild-type protein (P01112 whole entry): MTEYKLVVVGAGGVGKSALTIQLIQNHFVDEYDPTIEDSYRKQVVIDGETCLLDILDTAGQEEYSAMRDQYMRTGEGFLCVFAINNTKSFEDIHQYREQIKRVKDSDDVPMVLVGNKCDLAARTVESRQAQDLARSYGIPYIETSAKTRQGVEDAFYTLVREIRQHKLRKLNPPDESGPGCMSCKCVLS

| Structure (SMILES) | HRAS/KRAS (ratio of KD value with respect to HRAS to KD value with respect to KRAS) [1] | NRAS/KRAS (ratio of KD value with respect to NRAS to KD value with respect to KRAS) [2] |
| --- | --- | --- |
| CCO[C@@H]1C[C@H]2C(=O)NC3(CCC3)C(=O)N(C)[C@@H](CC(F)F)C(=O)N(C)[C@H](C(=O)N3CCOCC3)CC(=O)N(C)[C@@H](CC(C)C)C(=O)N[C@@H]([C@@H](C)CC)C(=O)N(C)CC(=O)N(C)[C@H]3CCCCCN(C3=O)[C@@H](Cc3ccc(C(F)(F)F)cc3)C(=O)N(C)CC(=O)N[C@@H](CCc3cc(F)c(C(F)(F)F)c(F)c3)C(=O)N2C1 [PP0822] | B (a compound having 3 or more and less than 10 is denoted as B) | B (a compound having 3 or more and less than 10 is denoted as B) |
| CCO[C@@H]1C[C@H]2C(=O)NC3(CCC3)C(=O)N(C)[C@@H](C(C)(C)C)C(=O)N(C)[C@H](C(=O)N3CCOCC3)CC(=O)N(C)[C@@H](CC(C)C)C(=O)N[C@@H]([C@@H](C)CC)C(=O)N(C)CC(=O)N(C)[C@H]3CCCCCN(C3=O)[C@@H](Cc3ccc(C(F)(F)F)cc3)C(=O)N(C)CC(=O)N[C@@H](CCc3cc(F)c(C(F)(F)F)c(F)c3)C(=O)N2C1 [PP0823] | B (a compound having 3 or more and less than 10 is denoted as B) | A (a compound having 10 or more and less than 20 is denoted as A) |
| CCO[C@@H]1C[C@H]2C(=O)NC3(CCC3)C(=O)N(C)[C@@H](C3CCCC3)C(=O)N(C)[C@H](C(=O)N(C)C)CC(=O)N(C)[C@@H](CC)C(=O)N[C@@H]([C@@H](C)CC)C(=O)N(C)CC(=O)N(C)[C@H]3C/C=C\CCN(C3=O)[C@@H](Cc3ccc(C(F)(F)F)cc3)C(=O)N(C)CC(=O)N[C@@H](CCc3cc(F)c(C(F)(F)F)c(F)c3)C(=O)N2C1 [PP0824] | A (a compound having 10 or more and less than 20 is denoted as A) | A (a compound having 10 or more and less than 20 is denoted as A) |
| CCO[C@@H]1C[C@H]2C(=O)NC3(CCC3)C(=O)N(C)[C@@H](C3CCCC3)C(=O)N(C)[C@H](C(=O)N3CCOCC3)CC(=O)N(C)[C@@H](CC(C)C)C(=O)N[C@@H]([C@@H](C)CC)C(=O)N(C)CC(=O)N(C)[C@H]3C/C=C\CCN(C3=O)[C@@H](Cc3ccc(C(F)(F)F)cc3)C(=O)N(C)CC(=O)N[C@@H](CCc3ccc(C(F)(F)F)c(Cl)c3)C(=O)N2C1 [PP0825] | A (a compound having 10 or more and less than 20 is denoted as A) | A (a compound having 10 or more and less than 20 is denoted as A) |
| CCO[C@@H]1C[C@H]2C(=O)NC3(CCC3)C(=O)N(C)[C@@H](C3CCCC3)C(=O)N(C)[C@H](C(=O)N3CCOCC3)CC(=O)N(C)[C@@H](CC(C)C)C(=O)N[C@@H]([C@@H](C)CC)C(=O)N(C)CC(=O)N(C)[C@H]3CC=C(C)CN(C3=O)[C@@H](Cc3ccc(C(F)(F)F)cc3)C(=O)N(C)CC(=O)N[C@@H](CCc3cc(F)c(C(F)(F)F)c(F)c3)C(=O)N2C1 [PP0826] | B (a compound having 3 or more and less than 10 is denoted as B) | C (A compound having a KD ratio of 0.1 or more and less than 3 is denoted as C) |
| CCO[C@@H]1C[C@H]2C(=O)NC3(CCC3)C(=O)N(C)[C@@H](C3CCCC3)C(=O)N(C)[C@H](C(=O)N(C)C)CC(=O)N(C)[C@@H](CC)C(=O)N[C@@H]([C@@H](C)CC)C(=O)N(C)CC(=O)N(C)[C@H]3CC=C(C)CN(C3=O)[C@@H](Cc3ccc(C(F)(F)F)cc3)C(=O)N(C)CC(=O)N[C@@H](CCc3cc(F)c(C(F)(F)F)c(F)c3)C(=O)N2C1 [PP0827] | C (A compound having a KD ratio of 0.1 or more and less than 3 is denoted as C) | C (A compound having a KD ratio of 0.1 or more and less than 3 is denoted as C) |
